The text below walks through data of patent publication US20210299038A1, “METHOD TO PREVENT AND TREAT OCULAR CATARACT BY CALCIUM CHANNEL BLOCKERS, ANGIOTENSIN CONVERTING ENZYME INHIBITORS, AND ANGIOTENSIN RECEPTOR BLOCKERS” (priority 2018, published 2021).

The subject of one assay is cataract opacities. To be noted: 3119 participants aged 55 to 80; after 10 years of supplementation; cited from earlier work.
Assay [1] deals with ocular cataract. The experiment in a line: Treatment of a patient diagnosed with ocular cataract, one eye treated, other eye untreated. The assay is classed as in vivo, human. The text has this: A patient is diagnosed with ocular cataract. A composition comprising the calcium channel blocker nifedipine is directly applied to the vitreous surface of one eye while the other eye is left untreated. […] A patient is diagnosed with ocular cataract. A composition comprising the ACE inhibitor enalapril is directly applied to the vitreous surface of one eye while the other eye is left untreated. […] A patient is diagnosed with ocular cataract. A composition comprising the angiotensin receptor blocker losartan is directly applied to the vitreous surface of one eye while the other eye is left untreated. […] A patient is diagnosed with ocular cataract. A composition comprising the calcium channel blocker nifedipine is applied to the eye by intravitreal or intraocular injection while the other eye is left untreated. […] A patient is diagnosed with ocular cataract. A composition comprising the ACE inhibitor enalapril is applied to the eye by intravitreal or intraocular injection while the other eye is left untreated. […] A patient is diagnosed with ocular cataract. A composition comprising the angiotensin receptor blocker losartan is applied to the eye by intravitreal or intraocular injection while the other eye is left untreated.

Assay [2] concerns ocular cataract. The experiment in a line: Prevention of recurrence of ocular cataract in a successfully treated patient, one eye treated, other eye untreated. To be noted: untreated eye shows recurrence. The assay is classed as in vivo, human. The text has this: A composition comprising the calcium channel blocker nifedipine is directly applied to the vitreous surface of one eye while the other eye is left untreated. […] A composition comprising the ACE inhibitor enalapril is directly applied to the vitreous surface of one eye while the other eye is left untreated. […] A composition comprising the angiotensin receptor blocker losartan is directly applied to the vitreous surface of one eye while the other eye is left untreated. […] A composition comprising the calcium channel blocker nifedipine is applied to the eye by intravitreal or intraocular injection while the other eye is left untreated. […] A composition comprising the ACE inhibitor enalapril is applied to the eye by intravitreal or intraocular injection while the other eye is left untreated. […] A composition comprising the angiotensin receptor blocker losartan is applied to the eye by intravitreal or intraocular injection while the other eye is left untreated.

The mark [3] stands for this setting: composition applied by intravitreal or intraocular injection.
Setting [4] is: composition directly applied to the vitreous surface of one eye.

With `CC1=C[C@H](O)CC(C)(C)[C@H]1/C=C/C(C)=C/C=C/C(C)=C/C=C/C=C(C)/C=C/C=C(C)/C=C/C1=C(C)C[C@@H](O)CC1(C)C` [lutein], the “nuclear cataract score opacities” value with cataract opacities was “No reduction”.
Regarding `CCCCc1nc(Cl)c(CO)n1Cc1ccc(-c2ccccc2-c2nn[nH]n2)cc1` [losartan], the “symptoms of ocular cataract in treated eye versus untreated eye” value in the assay with ocular cataract [1] (setting [3]) and in the assay with ocular cataract [1] (setting [4]) was “reduced symptoms of ocular cataract” each time. Besides, the “development (recurrence) of ocular cataract in treated eye” value with ocular cataract [2] (setting [3]) and in the assay on ocular cataract [2] (setting [4]) was “not develop ocular cataract” in each case.
As to `CC1=C(/C=C/C(C)=C/C=C/C(C)=C/C=C/C=C(C)/C=C/C=C(C)/C=C/C2=C(C)C[C@@H](O)CC2(C)C)C(C)(C)C[C@H](O)C1` [zeaxanthin], the “nuclear cataract score opacities” value in the assay on cataract opacities is “No reduction”.
Regarding `CCOC(=O)[C@H](CCc1ccccc1)N[C@@H](C)C(=O)N1CCC[C@H]1C(=O)O` [enalapril], the “symptoms of ocular cataract in treated eye versus untreated eye” value in the assay on ocular cataract [1] (setting [3]) and with ocular cataract [1] (setting [4]) was “reduced symptoms of ocular cataract” throughout. The “development (recurrence) of ocular cataract in treated eye” value in the assay with ocular cataract [2] (setting [3]) and in the assay on ocular cataract [2] (setting [4]) was “not develop ocular cataract” throughout.
